Values joined by “and” are separate entries in the source; they are usually repeats but may differ in a detail not shown here. Identical values can stand only once. Like-named read-outs stand apart in the source and are kept apart here.
Experiments:
[1] = Population pharmacokinetic model of vancomycin in preterm neonates; details: 500 non-parametric bootstrap runs; typical individual 1.48 kg
[2] = cited from earlier work

CL, bootstrap median (95% CI) [1]: 0.1 (0.09–0.11) L/h
Vd, bootstrap median (95% CI) [1]: 0.86 (0.804–0.93) L
Compound: CN[C@H](CC(C)C)C(=O)N[C@H]1C(=O)N[C@@H](CC(N)=O)C(=O)N[C@H]2C(=O)N[C@H]3C(=O)N[C@H](C(=O)N[C@H](C(=O)O)c4cc(O)cc(O)c4-c4cc3ccc4O)[C@H](O)c3ccc(c(Cl)c3)Oc3cc2cc(c3O[C@@H]2O[C@H](CO)[C@@H](O)[C@H](O)[C@H]2O[C@H]2C[C@](C)(N)[C@H](O)[C@H](C)O2)Oc2ccc(cc2Cl)[C@H]1O [vancomycin]
Clearance, range reported in a similar population of neonates [2]: 0.054 to 0.07 L/h
Vd, range reported in a similar population of neonates [2]: 0.58 to 1.19 L
Variation in Vd ([2]; neonatal populations): 32% and 29.4%
Variation in clearance ([2]; neonates): 32%
Variation in Vd ([2]; paediatric populations): 43% and 77%
